Results as given in article PMC8002512, “IRE1α Is a Therapeutic Target for Cystic Fibrosis Airway Inflammation” (International Journal of Molecular Sciences, 2021).

Target: T1, IRE1α (Homo sapiens, UniProt O75460)
T1 construct: gene ERN1; cytoplasmic portion, kinase and RNase domains, residues 547-977 of NP_001424, N-terminal His-tagged (Sf9)
Assay: TR-FRET (LanthaScreen) displacement of tracer […] from purified His-tagged IRE1α
Assay type: binding

T1 sequence (O75460 547-977): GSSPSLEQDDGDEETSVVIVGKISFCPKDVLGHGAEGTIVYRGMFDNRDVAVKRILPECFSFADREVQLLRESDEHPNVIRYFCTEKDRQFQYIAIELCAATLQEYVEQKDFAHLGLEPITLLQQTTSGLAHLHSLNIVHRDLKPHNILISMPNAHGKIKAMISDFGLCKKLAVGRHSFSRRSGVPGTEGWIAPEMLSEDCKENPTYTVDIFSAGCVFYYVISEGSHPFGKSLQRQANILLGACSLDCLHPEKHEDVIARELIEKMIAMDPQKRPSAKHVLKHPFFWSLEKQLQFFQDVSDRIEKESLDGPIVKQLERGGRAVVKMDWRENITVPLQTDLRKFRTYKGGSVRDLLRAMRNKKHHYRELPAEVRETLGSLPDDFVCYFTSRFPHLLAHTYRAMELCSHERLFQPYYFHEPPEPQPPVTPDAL

CC(C)(C)c1nc(-c2ccc(NC(=O)Nc3cccc(C(F)(F)F)c3)c3ccccc23)c2c(N)nccn12 [KIRA6]
Kd: 280 nM
